This note sets out measurements from patent publication US12441679B2, “Acrylamide-substituted indane compounds and therapeutic use thereof” (Sanofi, priority 2020, dated 2025).

For this experiment, the system named is YAP1-TEAD and TAZ-TEAD activity (TEAD responsive promoter element). The experiment in a line: TEAD-Luciferase Reporter Assay (8XGTIIC-Luciferase construct stably integrated in tumor cell lines). The class given is cell-based, human. The settings on record: Homo sapiens; 8XGTIIC-Luciferase reporter in tumor cell lines, 48 hrs compound treatment, 10 doses 1-10000 nM. The source says:
TEAD-Luciferase Reporter Assay
Luciferase-based gene reporter assays were used, employing the TEAD responsive promoter element that are stably integrated to different human tumor cell lines in order to monitor YAP1-TEAD and TAZ-TEAD activity and to study YAP1/TAZ-TEAD activity modulation by small molecule compounds. Luciferase-based gene reporter assays employing the GAPDH promoter element and stably integrated to different human tumor cell lines are used as counter screen control cell lines.
Tumor cell lines with stable integration of the 8XGTIIC-Luciferase construct (Dupont et al., Nature 2011) or the GAPDH-Luciferase control plasmid, are seeded in culture medium in 96-well plates at a density of 8000 cells/well. Following an overnight incubation in a 37° C., 5% CO2 growth chamber, cells are treated with compounds described above at 10 doses ranging between 1 and 10000 nM for 48 hrs. After compound incubation, cells are lysed with Bright-Glo Luciferase Assay System (Promega E2620) and luciferase activity is measured using a luminescent plate reader.
The inhibitory activity of the compounds with respect to luciferase activity is given by the concentration which inhibits 50% of activity of non-treated cells. IC50s are determined with a nonlinear regression model on XLfit software analysis (IDBS, UK).
A general note: A reporter such as luciferase makes a cellular process visible.

With `C=CC(=O)Nc1ccc2c(c1)C(Oc1cccc(C(=O)OC)c1)CC2` (centres unmarked) [Example 47, methyl 3-[6-(prop-2-enoylamino)-2,3-dihydro-1H-inden-1-yl]oxybenzoate], the half-maximal inhibitory concentration (IC50) (commonly the concentration at which inhibition is half-maximal) worked out at 4350 nM.
As for `C=CC(=O)Nc1ccc2c(c1)CCC2N(C)c1ccc(C(F)(F)F)cc1` (centres unmarked) [Example 64, N-(1-(methyl(4-(trifluoromethyl)phenyl)amino)-2,3-dihydro-1H-inden-5-yl)acrylamide], the IC50 was found to be 806 nM.
Next, `C=CC(=O)Nc1ccc2c(c1)C(Nc1ccc(C(F)(F)F)cc1)CC2` (centres unmarked) [Example 12, N-(3-((4-(trifluoromethyl)phenyl)amino)-2,3-dihydro-1H-inden-5-yl)acrylamide]: 55 nM; `C=CC(=O)Nc1ccc2c(c1)C(OC1CCC(F)(F)CC1)CC2` (centres unmarked) [Example 35, N-(3-((4,4-difluorocyclohexyl)oxy)-2,3-dihydro-1H-inden-5-yl)acrylamide]: 583 nM.
`C=CC(=O)Nc1cc(F)c2c(c1)CCC2Nc1cccc(C(F)(F)F)c1` (centres unmarked) [Example 67, N-[7-fluoro-1-[3-(trifluoromethyl)anilino]-2,3-dihydro-1H-inden-5-yl]acrylamide] showed an IC50 of 53 nM.
Next, `C=CC(=O)Nc1ccc2c(c1)CC(N[C@H]1CC[C@@H](C(F)(F)F)CC1)C2` (relative stereo) [Example 26, N-(2-(((cis)-4-(trifluoromethyl)cyclohexyl)amino)-2,3-dihydro-1H-inden-5-yl)acrylamide]: greater than 10000 nM.
Next, `C=CC(=O)Nc1ccc2c(c1)CCC2Nc1cccc(F)c1` (centres unmarked) [Example 8, N-(1-((3-fluorophenyl)amino)-2,3-dihydro-1H-inden-5-yl)acrylamide]: 132 nM; `C=CC(=O)Nc1ccc2c(c1)CCC2Oc1cccc(C(F)(F)F)c1` (centres unmarked) [Example 45, N-(1-(3-(trifluoromethyl)phenoxy)-2,3-dihydro-1H-inden-5-yl)acrylamide]: 12 nM; `C=CC(=O)Nc1ccc2c(c1)CCC2Nc1ccc(C(F)(F)F)nc1` (centres unmarked) [Example 20, N-(1-((6-(trifluoromethyl)pyridin-3-yl)amino)-2,3-dihydro-1H-inden-5-yl)acrylamide]: 358 nM.
For `C=CC(=O)N(C)c1ccc2c(c1)CC(C)C2Nc1cccc(C(F)(F)F)c1` (centres unmarked) [Example 93, N-methyl-N-(2-methyl-1-((3-(trifluoromethyl)phenyl)amino)-2,3-dihydro-1H-inden-5-yl)acrylamide], the IC50 amounted to 513 nM.
Next, `C=CC(=O)Nc1ccc2c(c1)C(Oc1ccccc1)CC2` (centres unmarked) [Example 38, N-(3-phenoxy-2,3-dihydro-1H-inden-5-yl)acrylamide]: 74 nM.
Next, `C=CC(=O)Nc1ccc2c(c1)CC(NCCCC(F)(F)F)C2` (centres unmarked) [Example 29, N-(2-((4,4,4-trifluorobutyl)amino)-2,3-dihydro-1H-inden-5-yl)acrylamide]: greater than 10000 nM; `C=CC(=O)Nc1ccc2c(c1)[C@@H](Oc1ccc(C(F)(F)F)cc1)CC2` (single isomer, unassigned) [Example 86]: 134 nM; `C=CC(=O)Nc1ccc2c(c1)C[C@@H](O)[C@@H]2Nc1cccc(C(F)(F)F)c1` (relative stereo) [Example 95, N-[(trans)-2-hydroxy-1-[3-(trifluoromethyl)anilino]-2,3-dihydro-1H-inden-5-yl]acrylamide]: 653 nM.
Next, `C=CC(=O)N(C)c1ccc2c(c1)CCC2OC1CCC(C(F)(F)F)CC1` (centres unmarked) [Example 76, N-methyl-N-(1-((4-(trifluoromethyl)cyclohexyl)oxy)-2,3-dihydro-1H-inden-5-yl)acrylamide]: 777 nM; `C=CC(=O)Nc1ccc2c(c1)CC[C@@H]2Nc1cc(C(F)(F)F)ccn1` (single isomer, unassigned) [Example 57]: 134 nM; `C=CC(=O)Nc1ccc2c(c1)CCC2N(C)c1cccc(C(F)(F)F)c1` (centres unmarked) [Example 62, N-(1-(methyl(3-(trifluoromethyl)phenyl)amino)-2,3-dihydro-1H-inden-5-yl)acrylamide]: 70 nM.
As for `C=CC(=O)Nc1ccc2c(c1)C(Oc1cccc(C)c1)CC2` (centres unmarked) [Example 79, N-(3-(m-tolyloxy)-2,3-dihydro-1H-inden-5-yl)acrylamide], the IC50 was 8670 nM. This IC50 lies about 120-fold higher than the previous one.
Next, `C=CC(=O)Nc1ccc2c(c1)CCC2Nc1ccc(F)nc1` (centres unmarked) [Example 19, N-(1-((6-fluoropyridin-3-yl)amino)-2,3-dihydro-1H-inden-5-yl)acrylamide]: 503 nM; `C=CC(=O)Nc1ccc2c(c1)CCC2Nc1cc(F)cc(F)c1` (centres unmarked) [Example 9, N-(1-((3,5-difluorophenyl)amino)-2,3-dihydro-1H-inden-5-yl)acrylamide]: 167 nM.
Next, `C=CC(=O)Nc1ccc2c(c1)C(C)(C)CC2Nc1ccc(C(F)(F)F)cc1` (centres unmarked) [Example 66, N-(3,3-dimethyl-1-((4-(trifluoromethyl)phenyl)amino)-2,3-dihydro-1H-inden-5-yl)acrylamide]: 863 nM.
Next, `C=CC(=O)N(C)c1ccc2c(c1)CCC2Nc1ccc(C(F)(F)F)cc1` (centres unmarked) [Example 69, N-methyl-N-(1-((4-(trifluoromethyl)phenyl)amino)-2,3-dihydro-1H-inden-5-yl)acrylamide]: 349 nM; `C=CC(=O)Nc1ccc2c(c1)C[C@H](Nc1cccc(C(F)(F)F)c1)C2` (single isomer, unassigned) [Example 50]: 76 nM; `C=CC(=O)Nc1ccc2c(c1)CCC2Nc1cccc(C)c1` (centres unmarked) [Example 18, N-(1-(m-tolylamino)-2,3-dihydro-1H-inden-5-yl)acrylamide]: 213 nM.
The compound `C=CC(=O)Nc1ccc2c(c1)CCC2Nc1cccc(C(F)(F)F)n1` (centres unmarked) [Example 60, N-(1-((6-(trifluoromethyl)pyridin-2-yl)amino)-2,3-dihydro-1H-inden-5-yl)acrylamide] registered an IC50 of 346 nM.
Next, `C=CC(=O)Nc1ccc2c(c1)C(Oc1cccc(C3CC3)c1)CC2` (centres unmarked) [Example 81, N-(3-(3-cyclopropylphenoxy)-2,3-dihydro-1H-inden-5-yl)acrylamide]: 117 nM.
Next, `C=CC(=O)Nc1ccc2c(c1)C(Oc1ccc(F)cc1F)CC2` (centres unmarked) [Example 44, N-(3-(2,4-difluorophenoxy)-2,3-dihydro-1H-inden-5-yl)acrylamide]: 38 nM.
Next, `C=CC(=O)Nc1ccc2c(c1)CCC2NCc1ccc(C(F)(F)F)cc1` (centres unmarked) [Example 25, N-(1-((4-(trifluoromethyl)benzyl)amino)-2,3-dihydro-1H-inden-5-yl)acrylamide]: 8240 nM; `C=CC(=O)Nc1ccc2c(c1)C(Oc1ccc(F)c(F)c1)CC2` (centres unmarked) [Example 40, N-(3-(3,4-difluorophenoxy)-2,3-dihydro-1H-inden-5-yl)acrylamide]: 15 nM; `C=CC(=O)Nc1ccc2c(c1)C(Oc1ccc(C(F)(F)F)cc1)CC2` (centres unmarked) [Example 37, N-(3-(4-(trifluoromethyl)phenoxy)-2,3-dihydro-1H-inden-5-yl)acrylamide]: 24 nM.
Consider `C=CC(=O)Nc1ccc2c(c1)CCC2Nc1ccc(F)c(F)c1` (centres unmarked) [Example 16, N-(1-((3,4-difluorophenyl)amino)-2,3-dihydro-1H-inden-5-yl)acrylamide], for which the IC50 came to 38 nM.
Next, `C=CC(=O)Nc1ccc2c(c1)CC(Nc1cccc(F)c1)C2` (centres unmarked) [Example 31, N-(2-((3-fluorophenyl)amino)-2,3-dihydro-1H-inden-5-yl)acrylamide]: 20 nM.
